Measurements: patent US7413895B2, “DNA encoding neutral amino acid transporter” (Japan Science and Technology Corporation, priority 1998, dated 2008)

Experiments:
[1] = biological target: T1, human amino acid transporter LAT1 (Homo sapiens, UniProt Q01650); assay: Incorporation of 14C-labeled amino acids into oocytes co-expressing human LAT1 and human 4F2hc; format: cell-based; design: expressed in transfected cells; details: summary statement of the disclosure
[2] = biological target: T1, human amino acid transporter LAT1; assay: Competitive antagonism test: incorporation of 14C-labeled leucine or phenylalanine into oocytes co-expressing human LAT1 and human 4F2hc in the presence of test substance; format: cell-based; design: expressed in transfected cells; details: 14C-labeled leucine 20 μM, test substance 2 mM, 30 minutes, choline chloride uptake solution
[3] = test system: Mouse sarcoma 180 cells; assay: Survival of ICR mouse after intraperitoneal transplantation of mouse sarcoma 180 cells; format: in vivo; details: male ICR mouse, sarcoma 180 cells intraperitoneally transplanted, 300 mg/kg for ten days, observation for 19 days
Description: Mouse sarcoma 180 cells were intraperitoneally transplanted (1×10^6) to male ICR mouse and, from the next day of the transplantation, BCH which was a inhibitor for the amino acid transporter, D-Leu having a inhibiting effect on amino acid transporter and D-Ala having no inhibiting action thereon were administered at the dose of 300 mg/kg for ten days. After the transplantation, it was confirmed every day whether the mouse was dead or alive.

[4] = test system: cells where both LAT1 and 4F2hc were strongly expressed; assay: Proliferation of cells where both LAT1 and 4F2hc were strongly expressed, effect of BCH; format: cell-based, human
Description: (§1) T24 cells derived from human bladder cancer were incubated and maintained in an Eagle's minimal essential medium containing 10% of fetal bovine serum. Human Daudi cells were incubated and maintained in an RPMI medium containing 20% of fetal bovine serum. T24 cells or Daudil cells were incubated in a 24-well plate (800 cells/well) for 5 days in a medium with or without 20 mM of BCH and the cell numbers were counted.

[5] = test system: P30/OHK cells; assay: Proliferation of P30/OHK cells, effect of BCH; format: cell-based, human; details: expression of 4F2hc not detected
[6] = test system: T24 cells derived from human bladder cancer; assay: Proliferation of T24 cells with or without BCH; format: cell-based; details: 20 mM of BCH, 5 days, cell numbers counted
Description: as §1

[7] = test system: Human Daudi cells; assay: Proliferation of Daudi cells with or without BCH; format: cell-based; details: 20 mM of BCH, 5 days, cell numbers counted
Description: as §1

[8] = test system: rat liver cell line where LAT1 was highly expressed; assay: Cell proliferation of cultured rat liver cell line, Cell Counting Kit-8; format: cell-based; details: 20 mM added to William's medium, incubation for 48 hours
Description: A rat liver cell line where LAT1 was highly expressed was incubated on a William's medium, 20 mM of D-leucine or BCH which suppressed the incorporation mediated by LAT1 were added to the medium and, by means of an incubation for 48 hours, cell numbers were investigated using a Cell Counting Kit-8 (manufactured by Dojindo Laboratories). The cell numbers were measured as an absorption at 450 nm (O.D. 450).

[9] = test system: CCRF-SB cells; assay: Proliferation of CCRF-SB cells, effect of BCH; format: cell-based, human; details: expression of 4F2hc not detected
[10] = test system: T24 cells derived from human bladder cancer; assay: Inhibition of 14C-leucine incorporation by T24 cells by amino acids and similar substances; format: cell-based; details: 14C-leucine 20 μM, 2 mM unlabeled compound
[11] = biological target: rat neutral amino acid transporter LAT1 (Rattus norvegicus, UniProt Q63016); assay: Inhibition of 14C-leucine incorporation into oocytes injected with rat LAT1 and rat 4F2hc cRNA by amino acids and similar substances; format: cell-based; design: expressed in transfected cells; host or cells: oocytes (Xenopus laevis by the cited method of Kanai and Hediger) injected with rat LAT1 cRNA and rat 4F2hc cRNA; details: rat LAT1/rat 4F2hc oocytes; 14C-leucine 20 μM, 2 mM unlabeled compound, choline uptake solution
rat neutral amino acid transporter LAT1, sequence (Q63016 whole entry): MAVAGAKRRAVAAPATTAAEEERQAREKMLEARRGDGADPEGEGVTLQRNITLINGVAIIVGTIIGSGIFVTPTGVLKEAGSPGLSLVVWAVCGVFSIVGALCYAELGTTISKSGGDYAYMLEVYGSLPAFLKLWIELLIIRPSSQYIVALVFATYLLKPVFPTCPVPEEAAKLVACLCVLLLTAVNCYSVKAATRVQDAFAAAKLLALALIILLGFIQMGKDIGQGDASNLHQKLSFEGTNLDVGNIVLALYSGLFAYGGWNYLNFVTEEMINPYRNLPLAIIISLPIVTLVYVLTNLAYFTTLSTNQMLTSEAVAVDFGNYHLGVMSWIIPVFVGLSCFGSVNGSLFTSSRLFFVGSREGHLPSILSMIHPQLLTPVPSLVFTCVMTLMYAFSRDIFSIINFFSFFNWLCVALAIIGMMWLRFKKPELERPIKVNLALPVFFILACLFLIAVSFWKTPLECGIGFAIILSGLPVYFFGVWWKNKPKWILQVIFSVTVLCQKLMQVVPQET
rat neutral amino acid transporter LAT1, sequence (Q794F9 whole entry partner): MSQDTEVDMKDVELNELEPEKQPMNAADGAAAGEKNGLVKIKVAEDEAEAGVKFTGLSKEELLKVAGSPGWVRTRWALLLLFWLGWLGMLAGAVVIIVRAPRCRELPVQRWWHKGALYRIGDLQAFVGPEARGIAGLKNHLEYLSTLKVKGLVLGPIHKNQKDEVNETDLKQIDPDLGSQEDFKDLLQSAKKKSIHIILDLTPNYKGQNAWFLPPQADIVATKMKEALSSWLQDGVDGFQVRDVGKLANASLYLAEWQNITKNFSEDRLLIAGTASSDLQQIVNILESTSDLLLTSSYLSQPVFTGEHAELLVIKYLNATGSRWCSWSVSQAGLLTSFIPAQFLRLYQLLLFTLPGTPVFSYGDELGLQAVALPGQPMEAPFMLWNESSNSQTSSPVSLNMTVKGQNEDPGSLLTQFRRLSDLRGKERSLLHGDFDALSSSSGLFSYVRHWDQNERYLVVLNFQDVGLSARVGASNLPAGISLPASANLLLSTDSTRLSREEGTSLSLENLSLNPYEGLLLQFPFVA

[12] = test system: T24 cells derived from human bladder cancer; assay: Inhibiting mode of leucine incorporation by T24 cells by BCH, double reciprocal plots; format: cell-based
Description: T24 cells derived from human bladder cancer were incubated and maintained in an Eagle's minimal essential medium containing 10% of fetal bovine serum. A test for the incorporation of amino acids into T24 cells was carried out by incubating the T24 cells on a 24-well plate and finished when the state became confluent. The amino acid incorporation test was started by removing the incubating solution and adding a Dulbecco's PBS (manufactured by Gibco) containing ^14C-amino acid and finished by removing it, cooling with ice and washing with a Dulbecco's PBS. After washing, the above was dissolved in 0.1N NaOH and the radioactivity was measured by a liquid scintillation counter.
Dependency of the ^14C-leucine incorporation by T24 cells on the concentration was measured in the absence of BCH, in the presence of 50 μM of BCH and in the presence of 100 μM of BCH and the inhibiting mode was investigated by means of double reciprocal plots.

T1 sequence (Q01650 whole entry): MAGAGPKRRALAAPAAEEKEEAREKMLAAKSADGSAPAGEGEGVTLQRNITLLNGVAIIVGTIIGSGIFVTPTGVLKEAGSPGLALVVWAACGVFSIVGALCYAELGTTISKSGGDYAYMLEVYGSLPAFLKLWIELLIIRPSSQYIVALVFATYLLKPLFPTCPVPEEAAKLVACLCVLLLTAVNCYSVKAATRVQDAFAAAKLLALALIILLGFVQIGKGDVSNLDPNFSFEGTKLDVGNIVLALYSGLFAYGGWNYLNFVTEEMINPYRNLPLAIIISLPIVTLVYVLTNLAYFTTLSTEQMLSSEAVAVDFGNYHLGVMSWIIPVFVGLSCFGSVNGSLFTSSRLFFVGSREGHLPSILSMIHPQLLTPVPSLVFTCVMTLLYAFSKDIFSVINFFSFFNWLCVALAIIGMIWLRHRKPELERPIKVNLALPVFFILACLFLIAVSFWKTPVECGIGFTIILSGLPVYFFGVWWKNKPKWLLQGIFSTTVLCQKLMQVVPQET
T1 sequence (as listed by the source partner): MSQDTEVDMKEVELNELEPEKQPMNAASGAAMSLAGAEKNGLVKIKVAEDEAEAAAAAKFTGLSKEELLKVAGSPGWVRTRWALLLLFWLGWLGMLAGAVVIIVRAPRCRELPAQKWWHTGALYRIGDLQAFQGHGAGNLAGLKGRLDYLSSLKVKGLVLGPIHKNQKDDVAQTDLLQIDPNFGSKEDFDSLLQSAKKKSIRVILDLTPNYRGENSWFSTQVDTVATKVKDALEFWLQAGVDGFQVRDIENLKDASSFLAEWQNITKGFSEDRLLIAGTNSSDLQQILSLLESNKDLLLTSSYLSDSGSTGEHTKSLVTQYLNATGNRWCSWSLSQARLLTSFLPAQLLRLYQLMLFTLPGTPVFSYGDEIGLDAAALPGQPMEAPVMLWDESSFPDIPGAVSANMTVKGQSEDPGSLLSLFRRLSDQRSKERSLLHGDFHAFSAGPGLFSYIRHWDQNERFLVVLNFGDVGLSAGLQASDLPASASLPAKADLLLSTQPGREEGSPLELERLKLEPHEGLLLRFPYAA

Q: For NC1(C(=O)O)CC2CCC1C2 (stereo not shown) [BCH, 2-amino-2-norbornane-carboxylic acid], which “incorporation in a cell in which human LAT1 and human 4F2hc are co-expressed” value [1] is on record?
A: confirmed

Q: What about the “inhibition of incorporation of 14C-labeled leucine mediated by the human LAT1” value [2] of the same molecule?
A: inhibited

Q: And the survival effect [3]?
A: significant survival effect

Q: What about the “suppressing effect on proliferation” value [4] of the same molecule?
A: strong suppressing effect

Q: What about the “effect on proliferation of P30/OHK cells” value [5] of the same molecule?
A: weak

Q: And the “suppression of proliferation of T24 cells” value [6]?
A: highly suppressed

Q: And the “suppression of proliferation of Daudi cells” value [7]?
A: rarely showed a suppressing effect

Q: What about the “cell numbers (O.D. 450) compared with control group” value [8] of the same molecule?
A: a reduction in the cell numbers was noted

Q: And the “effect on proliferation of CCRF-SB cells” value [9]?
A: weak

Q: And the “inhibition of incorporation of 14C-leucine by T24 cells” value [10]?
A: strongly inhibited

Q: What about the “inhibition of incorporation of 14C-leucine mediated by LAT1” value [11] of the same molecule?
A: inhibited

Q: What about the “inhibiting mode of leucine incorporation” value ([12]; 0, 50 μM and 100 μM of BCH, double reciprocal plots) of the same molecule?
A: competitive inhibition

Q: What about the Ki ([12]; 14C-leucine incorporation, 50 μM and 100 μM of BCH) of the same molecule?
A: 156 µM
